Assay results: ChEMBL document CHEMBL1201862, “PubChem BioAssay data set” (2004)
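How tested: cells in 96-well plates exposed to compound for 48 hours at five concentrations. The concentration for 50% growth inhibition is given as GI50.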 The source made the active and inactive calls. Cut-off read from the data, not from the text of the source: active = GI50 up to about 1.1 µM and inactive = higher.

How the values were obtained:
Experiment in all cases: DTP human tumour cell line panel, 48 h
A498 = system: A498
COLO 205 = system: COLO 205
EKVX = system: EKVX
HCC 2998 = system: HCC 2998
HCT-116 = system: HCT-116
IGROV-1 = system: IGROV-1
K562 = system: K562
KM12 = system: KM12
MCF7 = system: MCF7
MOLT-4 = system: MOLT-4
NCI-H23 = system: NCI-H23
PC-3 = system: PC-3
RXF 393 = system: RXF 393
SNB-75 = system: SNB-75
UO-31 = system: UO-31
BT-549 = system: BT-549
SN12C = system: SN12C
LOX IMVI = system: LOX IMVI
NCI-H226 = system: NCI-H226
SF-539 = system: SF-539

Row | SMILES | GI50 (A498) | GI50 (COLO 205) | GI50 (EKVX) | GI50 (HCC 2998) | GI50 (HCT-116) | GI50 (IGROV-1) | GI50 (K562) | GI50 (KM12) | GI50 (MCF7) | GI50 (MOLT-4) | GI50 (NCI-H23) | GI50 (PC-3) | GI50 (RXF 393) | GI50 (SNB-75) | GI50 (UO-31) | GI50 (BT-549) | GI50 (SN12C) | GI50 (LOX IMVI) | GI50 (NCI-H226) | GI50 (SF-539)
1 | COc1cc(/C=C/c2ccc(O)c(OC)c2)cc(OC)c1 | 21.6 µM (inactive) | > 100 µM (inactive) | 28.2 µM (inactive) | 49.7 µM (inactive) | 27.5 µM (inactive) | 39.9 µM (inactive) | 26.4 µM (inactive) | 20.8 µM (inactive) | 26.2 µM (inactive) | 20.9 µM (inactive) | 26.5 µM (inactive) | 10.3 µM (inactive) | 22.6 µM (inactive) | 23.1 µM (inactive) | 20 µM (inactive) | – | – | – | – | –
2 | Cc1cc(C)nc(NS(=O)(=O)c2ccc(Nc3nnc(/C=C/c4c(O)ccc5ccccc45)c(=O)n3N)cc2)n1 | – | – | 38.4 µM (inactive) | – | 17.9 µM (inactive) | 27.9 µM (inactive) | 27.6 µM (inactive) | – | 17.7 µM (inactive) | > 100 µM (inactive) | 19.1 µM (inactive) | – | 18.6 µM (inactive) | 17.3 µM (inactive) | 26 µM (inactive) | 32.7 µM (inactive) | 22.3 µM (inactive) | – | – | –
3 | CN1CCN(C(=S)N(C(=O)c2ccc(Cl)cc2)c2ccccc2)CC1 | – | > 100 µM (inactive) | – | > 100 µM (inactive) | – | > 100 µM (inactive) | > 100 µM (inactive) | > 100 µM (inactive) | > 100 µM (inactive) | > 100 µM (inactive) | > 100 µM (inactive) | – | > 100 µM (inactive) | 41.8 µM (inactive) | > 100 µM (inactive) | > 100 µM (inactive) | > 100 µM (inactive) | > 100 µM (inactive) | > 100 µM (inactive) | –
4 | CCCC[C@H](CCc1ccccc1)N(C(=O)OC)N1CCC[C@H]1COC | 18.1 µM (inactive) | 16.3 µM (inactive) | 17.5 µM (inactive) | 14.6 µM (inactive) | 13.6 µM (inactive) | 20.9 µM (inactive) | 21.7 µM (inactive) | 18.8 µM (inactive) | – | 24.2 µM (inactive) | 17.2 µM (inactive) | – | 18.1 µM (inactive) | 35.1 µM (inactive) | 16.7 µM (inactive) | – | 17.9 µM (inactive) | 18.3 µM (inactive) | 20.2 µM (inactive) | 18 µM (inactive)
5 | O=C1C=CC(=O)C2=C1[C@@H](O)C1CC=CC3C(=O)O[C@@H]2C31 (stereo not given in full) | > 100 µM (inactive) | 20.3 µM (inactive) | > 59.6 µM (inactive) | 18.5 µM (inactive) | 19.8 µM (inactive) | 14.8 µM (inactive) | 18.5 µM (inactive) | 19.8 µM (inactive) | – | 20 µM (inactive) | 27 µM (inactive) | – | 18 µM (inactive) | 24.9 µM (inactive) | 43.1 µM (inactive) | – | 20.7 µM (inactive) | 20.6 µM (inactive) | 37.5 µM (inactive) | > 43.9 µM (inactive)
6 | [O-][S+](Nc1ccccc1)c1cccc(Cl)c1 (stereo not given) | – | > 100 µM (inactive) | 27 µM (inactive) | 11.3 µM (inactive) | 45.2 µM (inactive) | 46.3 µM (inactive) | 37.3 µM (inactive) | 34.2 µM (inactive) | > 100 µM (inactive) | 34.7 µM (inactive) | 42.7 µM (inactive) | 65.9 µM (inactive) | 51.1 µM (inactive) | 76.6 µM (inactive) | 60.4 µM (inactive) | – | > 100 µM (inactive) | 60.5 µM (inactive) | > 100 µM (inactive) | 27.5 µM (inactive)
7 | COc1cc(S(=O)(=O)Nc2nc(-c3ccc(N4C(=O)CSC4c4cccs4)cc3)cs2)ccc1Cl (stereo not given) | > 100 µM (inactive) | > 100 µM (inactive) | – | – | 45.2 µM (inactive) | 34.3 µM (inactive) | 31 µM (inactive) | 75.5 µM (inactive) | 43.5 µM (inactive) | 22.1 µM (inactive) | 33.2 µM (inactive) | 88.3 µM (inactive) | 24.1 µM (inactive) | > 100 µM (inactive) | 22.6 µM (inactive) | – | 25.6 µM (inactive) | 21.8 µM (inactive) | > 100 µM (inactive) | 49.7 µM (inactive)
8 | N#C/C(=C\c1c(Cl)cccc1Cl)c1ccccc1 | 3.13 µM (inactive) | 2.4 µM (inactive) | 18.3 µM (inactive) | > 39.2 µM (inactive) | 4.36 µM (inactive) | 9.29 µM (inactive) | 3.15 µM (inactive) | 4.86 µM (inactive) | – | 4.73 µM (inactive) | 14.9 µM (inactive) | – | 6.12 µM (inactive) | 2.97 µM (inactive) | 17.7 µM (inactive) | – | 9.82 µM (inactive) | 18.7 µM (inactive) | > 22.9 µM (inactive) | 2.72 µM (inactive)
9 | NCCCCNc1ccc2c(=O)[nH][nH]c(=O)c2c1 | > 100 µM (inactive) | > 100 µM (inactive) | > 100 µM (inactive) | > 100 µM (inactive) | > 100 µM (inactive) | > 100 µM (inactive) | > 100 µM (inactive) | > 100 µM (inactive) | – | > 100 µM (inactive) | > 100 µM (inactive) | – | > 100 µM (inactive) | > 100 µM (inactive) | > 100 µM (inactive) | – | > 100 µM (inactive) | > 100 µM (inactive) | > 100 µM (inactive) | > 100 µM (inactive)
10 | COC(CC1(/C=C/O[Si](C(C)C)(C(C)C)C(C)C)C(=O)N(C)c2ccccc21)OC (stereo not given) | > 100 µM (inactive) | 58.9 µM (inactive) | 46 µM (inactive) | 64 µM (inactive) | 28.5 µM (inactive) | – | 51.5 µM (inactive) | 39.4 µM (inactive) | 36.8 µM (inactive) | 55.3 µM (inactive) | 42.1 µM (inactive) | 49.3 µM (inactive) | 59.6 µM (inactive) | > 100 µM (inactive) | 68.2 µM (inactive) | – | 78.9 µM (inactive) | 33.4 µM (inactive) | 24.1 µM (inactive) | –
11 | O=C(O)c1cc2ccccc2c(/N=N\c2cc(C(F)(F)F)ccc2Cl)c1O | – | 39.7 µM (inactive) | 70 µM (inactive) | > 100 µM (inactive) | 53.8 µM (inactive) | 95.9 µM (inactive) | 27 µM (inactive) | 23.8 µM (inactive) | > 100 µM (inactive) | 27.4 µM (inactive) | 56.5 µM (inactive) | 48.6 µM (inactive) | 35.2 µM (inactive) | 0.0169 µM (active) | 33.4 µM (inactive) | – | 44.9 µM (inactive) | – | > 100 µM (inactive) | 99.3 µM (inactive)
12 | COc1cc2c(c(OC)c1OC)[C@@H]1CCCCC[C@@H]1CCC2=O | > 100 µM (inactive) | > 48.6 µM (inactive) | > 100 µM (inactive) | > 100 µM (inactive) | 57.1 µM (inactive) | > 100 µM (inactive) | 28.9 µM (inactive) | 99.1 µM (inactive) | – | 24 µM (inactive) | > 100 µM (inactive) | – | > 100 µM (inactive) | > 100 µM (inactive) | > 100 µM (inactive) | – | > 100 µM (inactive) | 17.7 µM (inactive) | > 100 µM (inactive) | > 100 µM (inactive)
13 | COc1cc(C(C)(C)C)c(OC(=O)/C=C/C(=O)O/C=C/[N+](=O)[O-])c(C(C)(C)C)c1 | 44.4 µM (inactive) | 42.9 µM (inactive) | 69 µM (inactive) | > 100 µM (inactive) | 46.5 µM (inactive) | 69.8 µM (inactive) | > 100 µM (inactive) | 16.8 µM (inactive) | 13.5 µM (inactive) | > 100 µM (inactive) | 19.4 µM (inactive) | – | 27.6 µM (inactive) | > 100 µM (inactive) | 28.1 µM (inactive) | – | 41.3 µM (inactive) | 24.2 µM (inactive) | 28.1 µM (inactive) | 34.4 µM (inactive)
14 | c1ccc(NC2(c3nnnn3C3CCCCC3)CCNCC2)cc1 | 18 µM (inactive) | 19.8 µM (inactive) | 20.7 µM (inactive) | 11.7 µM (inactive) | 15.2 µM (inactive) | 32.7 µM (inactive) | – | 15.3 µM (inactive) | 18.5 µM (inactive) | 18.2 µM (inactive) | 23.8 µM (inactive) | – | > 10 µM (inactive) | 14.9 µM (inactive) | 11.9 µM (inactive) | – | 36.6 µM (inactive) | 15.7 µM (inactive) | 17.9 µM (inactive) | 15.6 µM (inactive)
15 | CC(=O)OC1CCC2OOC1O2 (stereo not given) | > 100 µM (inactive) | > 100 µM (inactive) | > 100 µM (inactive) | > 100 µM (inactive) | > 100 µM (inactive) | > 100 µM (inactive) | > 100 µM (inactive) | > 100 µM (inactive) | – | > 100 µM (inactive) | > 100 µM (inactive) | – | > 100 µM (inactive) | > 100 µM (inactive) | > 100 µM (inactive) | – | > 100 µM (inactive) | > 100 µM (inactive) | > 100 µM (inactive) | > 100 µM (inactive)
16 | CC/C=C/c1cc2c(cc1O)CCC1C2CC[C@@]2(C)C1CC[C@@H]2O (stereo not given in full) | 2.56 µM (inactive) | 14 µM (inactive) | 3.53 µM (inactive) | 14.7 µM (inactive) | 1.02 µM (active) | 4.37 µM (inactive) | 1.28 µM (inactive) | 4.32 µM (inactive) | 1.08 µM (active) | 1.97 µM (inactive) | 3.33 µM (inactive) | 3.49 µM (inactive) | 1.08 µM (active) | 1.44 µM (inactive) | 6.03 µM (inactive) | – | – | 0.904 µM (active) | 1.47 µM (inactive) | –
